These results are taken from PMC10002375, “Synthesis of 3-(2-Alkylthio-4-chloro-5-methylbenzenesulfonyl)-2-(1-phenyl-3-arylprop-2-enylideneamino)guanidine Derivatives with Pro-Apoptotic Activity against Cancer Cells” (International Journal of Molecular Sciences, 2023).

The test system of test [1] is HCT-116 (colon cancer). The test can be described thus: MTT cell viability assay, HCT-116. The format is cell-based, human.
Test [2] has as its system HaCaT cells. As to the kind of experiment: MTT assay with non-cancerous HaCaT cell line. The format is cell-based. The following applies: Homo sapiens, HaCaT, 72 h. As to the method: The important feature of new cytotoxic agents is their selective activity against cancer cells with a weak impact on the physiology of healthy cells. Determination of the selectivity of compounds 14–19 and 24–29 was done by MTT assay with the non-cancerous HaCaT cell line (Table 2). […] A similar effect was observed also for compound 26. […] Due to the excellent selectivity of compound 30 towards HCT-116 cells and at the same time high cytotoxicity towards this cell line (IC50 = 8 μM); derivative 30 may be a good hit compound for the search for chemotherapeutic agents for the treatment of colon cancer.
Cell viability was determined using the MTT (3-(4,5-dimethylthiazol-2-yl)-2,5-diphenyl-tetrazoliumbromide) assay. Stock solutions of the studied compounds were prepared in 100% DMSO. […] Cells were seeded in 96-well plates at a density of 5 × 10^3 cells/well and treated for 72 h with the examined compounds in the concentration range 1–100 μM (1, 10, 25, 50, and 100 μM). Following treatment, MTT (0.5 mg/mL) was added to the medium and cells were further incubated for 2 h at 37 °C. Cells were lysed with DMSO and the absorbance of the formazan solution was measured at 550 nm with a plate reader (1420 multilabel counter, Victor, Jügesheim, Germany). […] The experiment was performed in triplicate. Values are expressed as the mean ± SD of at least three independent experiments.

The subject of test [3] is HeLa (cervical cancer). The test can be described thus: MTT cell viability assay, HeLa. The format is cell-based, human.
The subject of test [4] is HeLa cells. As to the kind of experiment: Mitochondrial membrane potential (JC-1, flow cytometry), HeLa. The format is cell-based, human. The following applies: 72 h, 24 at 10 or 25 μM, 31 at 25 μM. The source says:
(§1) A decrease in mitochondrial potential is one of the earliest hallmarks of apoptosis. A common method for indication of cells with high and low Δψm is flow cytometry combined with specific fluorescent probes, such as JC-1 (5,5′,6,6′-tetrachloro-1,1′,3,3′-tetraethylbenzimidazolylcarbocyanine iodide). JC-1 accumulates in mitochondria and forms complexes (J aggregates) with red fluorescence in healthy cells with a normal ΔΨm, whereas in apoptotic cells with a low ΔΨm exists as a monomer with green fluorescence.
(§2) Analyzed cells were seeded into wells of a 24-well plate at a density of 5 × 10^4 cells in 1000 µL, incubated overnight, and then the medium was exchanged for dilutions of reagents 24 and 31. Before the end of 72 h of incubation, MitoProbe JC-1 (25 µM) was added into each plate well. Carbonyl cyanide m-chlorophenylhydrazone CCCP (200 nM) as the mitochondrial oxidative phosphorylation uncoupler was added into the positive control 15 min before JC-1 was added. After 30 min of JC-1 staining, cells were washed with PBS and then trypsinized (Corning® 25-053CI). Cells suspended in PBS were analyzed by flow cytometry at λ excitation (ex) = 488 nm and λ emission (em) = 525/570 nm (LSR II BD Biosciences, San Jose, CA, USA).

Test [5] concerns MCF-7 cells. The test can be described thus: Mitochondrial membrane potential (JC-1, flow cytometry), MCF-7. The format is cell-based, human. Particulars: MCF-7, 72 h, 24 at 10 or 25 μM, 31 at 25 μM.
Description: as §1, §2

Test [6] has as its system MCF-7 cells. As to the kind of experiment: Cell cycle distribution by flow cytometry, MCF-7. The format is cell-based, human. The following applies: for cells in sub-G1 phase: 72 h. As to the method:
The cell cycle distribution was measured by flow cytometry analysis after incubation of MCF-7, HeLa, and HCT-116 with compounds 24 and 31 for 72 h.

The subject of test [7] is HCT-116 cells. The test can be described thus: Mitochondrial membrane potential (JC-1, flow cytometry), HCT-116. The format is cell-based, human. Particulars: HCT-116, 72 h, 24 at 10 or 25 μM, 31 at 25 μM.
Description: as §1, §2

On to `Cc1cc(S(=O)(=O)NC(N)=NN=C(C=Cc2ccccc2O)c2ccccc2)c(SCc2ccccc2Cl)cc1Cl` [Compound 24, 3-{4-chloro-2-[(2-chlorophenyl)methylthio]-5-methylbenzenesulfonyl}-2-[3-(2-hydroxyphenyl)-1-phenylprop-2-enylideneamino]guanidine], for which, in test [1] (HCT-116 versus HaCaT, from IC50 values), the “Selectivity Index HCT-116/HaCaT” value is on record as 3.7. For the same compound, the IC50 was found to be 9 ± 0.5 µM in test [1] (Homo sapiens, HCT-116, MTT, 72 h); 33 ± 2 µM in test [2]; 17 ± 0.5 µM in test [3] (Homo sapiens, HeLa, MTT, 72 h). In addition, in test [3] (HeLa versus HaCaT, from IC50 values), the “Selectivity Index HeLa/HaCaT” value was 1.9. Further, the “change of mitochondrial membrane potential (ΔΨm)” value in test [4], in test [5] and in test [7] was “remarkable decrease in ΔΨm” each time. The “cells in sub-G1 phase” value in test [6] (MCF-7, 10 μM) worked out at 5.22%; in test [6] (MCF-7, 25 μM), 7.53%. Moreover, the “effect on cell cycle distribution” value in test [6] (MCF-7, 72 h, 24 at 10 and 25 μM, 31 at 25 μM) is listed as “no significant effect on the cell cycle distribution”.
